The numbers were not newly measured in publication PMC7395068, “The evolution of strategies to minimise the risk of human drug-induced liver injury (DILI) in drug discovery and development” (Archives of Toxicology, 2020), which cites them from elsewhere.

Like-named read-outs stand apart in the source and are kept apart here.

For one series, the system named is human hepatocytes. As to conditions: cited from earlier work.
For series [1] the following is noted: ref Chen 2016; cited from earlier work.
Series [2] concerns primary human hepatocytes, NIH3T3 fibroblasts, BSEP, CYP3A4. As to conditions: In vitro Assay; ref Schadt 2015; cited from earlier work.
The test system of series [3] is THLE or HepG2 cells, isolated mitochondria, BSEP. As to conditions: In vitro Assay; ref Aleo 2019; cited from earlier work.
The conditions of series [4]: cited from earlier work.

As for `CC(=O)Nc1nnc(S(N)(=O)=O)s1` [acetazolamide], the “Structural based (HCI)” value in the series on human hepatocytes (In vitro Assay, ref Xu 2008) is listed as “-VE”.

In the case of `Nc1ncnc2c1ncn2[C@@H]1O[C@H](CO)[C@@H](O)[C@H]1O` [adenosine], the “Structural based (HCI)” value with human hepatocytes (In vitro Assay, ref Xu 2008) is “-VE”.

In the case of `Nc1ccc(C(=O)O)cc1` [aminobenzoate potassium], the “Structural based (HCI)” value in the series with human hepatocytes (In vitro Assay, ref Xu 2008) was “-VE”.

Consider `COc1cc(NS(C)(=O)=O)ccc1Nc1c2ccccc2nc2ccccc12` [amsacrine], for which the “Structural based (HCI)” value in the series with human hepatocytes (In vitro Assay, ref Xu 2008) is reported as “+VE”.

Regarding `CCOC(=O)[C@H](CCc1ccccc1)N[C@H]1CCc2ccccc2N(CC(=O)O)C1=O` [benazepril], the “Structural based (HCI)” value with human hepatocytes (In vitro Assay, ref Xu 2008) is on record as “-VE”.

As for `CC(NC(C)(C)C)C(=O)c1cccc(Cl)c1` (centres unmarked) [bupropion], in the series on human hepatocytes (In vitro Assay, ref Xu 2008), the “Structural based (HCI)” value is on record as “-VE”.

For `CC(C)(CO)[C@@H](O)C(=O)NCCC(=O)O` [calcium pantothenate], the “Structural based (HCI)” value in the series with human hepatocytes (In vitro Assay, ref Xu 2008) was “-VE”.

Turning to `C#C[C@]1(O)CC[C@H]2[C@@H]3CCC4=Cc5oncc5C[C@]4(C)[C@H]3CC[C@@]21C` [danazol], in the series with human hepatocytes, the “Structural based (HCI)” value is listed as “-VE”.

`O=c1[nH]cnc2c1ncn2[C@H]1CC[C@@H](CO)O1` [didanosine]: the “Structural based (HCI)” value with human hepatocytes (In vitro Assay, ref Xu 2008) is recorded as “-VE”.

Turning to `CC[N+](C)(C)c1cccc(O)c1` [edrophonium chloride], in the series on human hepatocytes, the “Structural based (HCI)” value is listed as “-VE”.

In the case of `C#C[C@]1(OC(C)=O)CC[C@H]2[C@@H]3CCC4=C[C@@H](OC(C)=O)CC[C@@H]4[C@H]3CC[C@@]21C` [ethynodiol diacetate], in the series with human hepatocytes (In vitro Assay, ref Xu 2008), the “Structural based (HCI)” value was “-VE”.

On to `Nc1nc(=O)[nH]cc1F` [flucytosine], for which the “Structural based (HCI)” value with human hepatocytes (In vitro Assay, ref Xu 2008) is listed as “+VE”.

Consider `COCCCC/C(=N\OCCN)c1ccc(C(F)(F)F)cc1` [fluvoxamine], for which the “Structural based (HCI)” value in the series with human hepatocytes is reported as “-VE”.

Regarding `Nc1nc2ncc(CNc3ccc(C(=O)N[C@@H](CCC(=O)O)C(=O)O)cc3)nc2c(=O)[nH]1` [folate], the “Structural based (HCI)” value with human hepatocytes (In vitro Assay, ref Xu 2008) is listed as “-VE”.

Take `CC[N+](CC)(CC)CCOc1cccc(OCC[N+](CC)(CC)CC)c1OCC[N+](CC)(CC)CC` [gallamine triethiodide]: the “Structural based (HCI), In vitro Assay” value in the series with human hepatocytes (human hepatocyte imaging, ref Xu 2008) is listed as “-VE”.

Regarding `CNCCCC1c2ccccc2C=Cc2ccccc21` [protriptyline], in series [1], the “DILI +VE (5-8), DILI -VE (-4)” value is recorded as “-VE” and the DILI severity category result is “vNo-DILI-Concern”. Further, in series [2], the “Cellular toxicity (3T3 cells)” value is listed as “-VE”, the “Combined Assay” value is recorded as “+VE”, the “GSH adduct HML” value was “-VE” and the Hepatocyte cellular toxicity entry was “-VE”. Moreover, in series [2], the “MitoTox 3T3” value is recorded as “+VE”, the “TDI CYP3A4” value is given as “-VE” and the hBSEP inhibition entry is “-VE”. In series [3], the “Partition Hybrid HRM Score” value is given as “-VE” and the “Ro2 Hybrid HRM Score” value is on record as “-VE”. The “In vivo DILI” value in series [4] (ref Aleo 2019) is listed as “-VE”. Besides, in series [4] (ref Schadt 2015), the “In vivo DILI” value was “-VE”.

On to `CCOc1ccccc1OCCN[C@H](C)Cc1ccc(OC)c(S(N)(=O)=O)c1` [tamsulosin], for which, in series [1], the “DILI +VE (5-8), DILI -VE (-4)” value is recorded as “+VE” and the DILI severity category entry is on record as “vLess-DILI-Concern”. In series [2], the “Cellular toxicity (3T3 cells)” value was “-VE”, the “Combined Assay” value is “-VE”, the “GSH adduct HML” value was “-VE” and the Hepatocyte cellular toxicity result is given as “-VE”. Further, in series [2], the “MitoTox 3T3” value is given as “-VE”, the “TDI CYP3A4” value is reported as “-VE” and the hBSEP inhibition entry was “-VE”. In addition, in series [3], the “Partition Hybrid HRM Score” value is “-VE” and the “Ro2 Hybrid HRM Score” value was “-VE”. In addition, the “In vivo DILI” value in series [4] (ref Aleo 2019) is “+VE”. For the same compound, the “In vivo DILI” value in series [4] (ref Schadt 2015) was “-VE”.

Take `Cc1nc(C)c2c(n1)N(Cc1ccc(-c3ccccc3-c3nnn[nH]3)cc1)C(=O)CC2` [tasosartan]: in series [2], the “Cellular toxicity (3T3 cells)” value was “-VE”, the “Combined Assay” value is “+VE”, the “GSH adduct HML” value is given as “-VE” and the Hepatocyte cellular toxicity entry is “+VE”. For the same compound, in series [2], the “MitoTox 3T3” value was “-VE”, the “TDI CYP3A4” value is “-VE” and the hBSEP inhibition result is listed as “+VE”. In series [3], the “Partition Hybrid HRM Score” value is “+VE” and the “Ro2 Hybrid HRM Score” value was “+VE”.
